Source: paper PMC3962780 (ChemMedChem, 2013)

Legend:
MCF-7 ER(+) cells = test: Cytotoxicity assay; format: cell-based, human
MCF-7 cells = settings: MCF-7, 48 h, 4-OHT 10 μM; ref Bicaku et al. [9b]; cited from earlier work
human recombinant HDAC1 = human recombinant HDAC1 (Homo sapiens, UniProt Q13547); test: HDAC activity assay, recombinant HDAC1; format: biochemical
human recombinant HDAC2 = human recombinant HDAC2 (Homo sapiens, UniProt Q92769); test: HDAC activity assay, recombinant HDAC2; format: biochemical
human recombinant HDAC3 = human recombinant HDAC3 (Homo sapiens, UniProt O15379); test: HDAC activity assay, recombinant HDAC3; format: biochemical
[1] = molecular target: T1, recombinant HDAC8 (purified from E. coli) (Homo sapiens, UniProt Q9BY41); test: HDAC activity assay, recombinant HDAC8; format: biochemical
T1 sequence (Q9BY41 1-377): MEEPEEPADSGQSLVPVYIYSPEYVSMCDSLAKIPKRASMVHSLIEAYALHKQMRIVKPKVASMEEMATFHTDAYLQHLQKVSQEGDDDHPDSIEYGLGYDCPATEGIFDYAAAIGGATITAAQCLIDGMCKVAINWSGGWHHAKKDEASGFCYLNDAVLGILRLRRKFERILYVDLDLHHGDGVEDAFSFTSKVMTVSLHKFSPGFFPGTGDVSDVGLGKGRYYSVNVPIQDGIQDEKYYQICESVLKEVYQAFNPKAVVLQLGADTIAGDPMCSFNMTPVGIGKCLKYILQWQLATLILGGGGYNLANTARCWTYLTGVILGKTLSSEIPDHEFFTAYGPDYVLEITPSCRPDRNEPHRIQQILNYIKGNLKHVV

ERα [2] = molecular target: T2, ERα (Homo sapiens, UniProt P03372); test: Inhibition of 17β estradiol induced ERE-luciferase activity in MCF-7 cells; format: cell-based; settings: cotreatment with E2
T2 sequence (P03372 1-595): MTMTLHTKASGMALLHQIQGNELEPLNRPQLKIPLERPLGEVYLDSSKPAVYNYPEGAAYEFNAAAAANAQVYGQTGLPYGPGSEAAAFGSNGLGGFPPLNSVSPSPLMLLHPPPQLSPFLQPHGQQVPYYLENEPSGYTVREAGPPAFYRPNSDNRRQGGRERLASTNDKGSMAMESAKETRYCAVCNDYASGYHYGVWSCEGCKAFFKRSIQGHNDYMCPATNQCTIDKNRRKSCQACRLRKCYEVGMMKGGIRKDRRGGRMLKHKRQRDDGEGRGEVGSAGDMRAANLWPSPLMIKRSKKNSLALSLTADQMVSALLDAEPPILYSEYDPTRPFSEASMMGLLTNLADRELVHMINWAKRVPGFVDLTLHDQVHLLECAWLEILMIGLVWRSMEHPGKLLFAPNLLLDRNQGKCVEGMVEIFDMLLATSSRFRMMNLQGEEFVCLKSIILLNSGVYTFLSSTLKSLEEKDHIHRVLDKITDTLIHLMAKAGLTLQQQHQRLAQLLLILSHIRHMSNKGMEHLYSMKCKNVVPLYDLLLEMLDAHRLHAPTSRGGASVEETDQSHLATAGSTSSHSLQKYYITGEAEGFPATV

MDA-MB-231 ER(−) cells = test: Cytotoxicity assay; format: cell-based, human; settings: hybrid molecules 10 μM; 24, 48 and 72 h
ERα [3] = molecular target: T2, ERα; test: Ishikawa alkaline phosphatase assay; format: cell-based

Sequence of human recombinant HDAC3 (O15379 whole entry): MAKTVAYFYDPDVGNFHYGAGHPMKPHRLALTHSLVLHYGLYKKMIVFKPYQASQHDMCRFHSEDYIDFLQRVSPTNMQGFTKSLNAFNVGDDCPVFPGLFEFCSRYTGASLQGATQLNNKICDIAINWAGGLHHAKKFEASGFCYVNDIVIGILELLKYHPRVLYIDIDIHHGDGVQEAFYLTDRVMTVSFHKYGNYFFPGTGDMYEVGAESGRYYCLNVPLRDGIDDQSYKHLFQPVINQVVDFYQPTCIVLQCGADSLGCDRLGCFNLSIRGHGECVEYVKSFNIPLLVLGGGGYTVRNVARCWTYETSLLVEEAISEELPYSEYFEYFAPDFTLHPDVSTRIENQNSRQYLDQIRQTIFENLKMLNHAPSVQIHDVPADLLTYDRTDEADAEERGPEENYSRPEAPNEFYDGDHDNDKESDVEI
Sequence of human recombinant HDAC3 (Q9Y618 395-489 partner limits assumed): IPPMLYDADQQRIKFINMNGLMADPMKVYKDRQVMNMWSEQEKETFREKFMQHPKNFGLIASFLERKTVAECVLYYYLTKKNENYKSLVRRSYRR
Sequence of human recombinant HDAC1 (Q13547 whole entry): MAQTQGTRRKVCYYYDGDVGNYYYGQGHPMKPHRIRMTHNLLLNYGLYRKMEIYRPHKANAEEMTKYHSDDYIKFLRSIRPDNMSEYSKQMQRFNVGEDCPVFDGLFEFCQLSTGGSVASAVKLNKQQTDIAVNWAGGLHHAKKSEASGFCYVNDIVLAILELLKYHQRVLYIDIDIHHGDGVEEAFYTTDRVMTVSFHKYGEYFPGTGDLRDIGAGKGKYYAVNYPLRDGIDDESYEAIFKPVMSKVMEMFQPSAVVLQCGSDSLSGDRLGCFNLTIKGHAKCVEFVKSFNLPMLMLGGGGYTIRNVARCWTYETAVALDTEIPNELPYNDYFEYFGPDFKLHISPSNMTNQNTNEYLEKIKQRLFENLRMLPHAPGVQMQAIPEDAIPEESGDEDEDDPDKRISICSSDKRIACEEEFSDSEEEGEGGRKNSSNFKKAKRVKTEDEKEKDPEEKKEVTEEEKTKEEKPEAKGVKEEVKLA
Sequence of human recombinant HDAC2 (Q92769 whole entry): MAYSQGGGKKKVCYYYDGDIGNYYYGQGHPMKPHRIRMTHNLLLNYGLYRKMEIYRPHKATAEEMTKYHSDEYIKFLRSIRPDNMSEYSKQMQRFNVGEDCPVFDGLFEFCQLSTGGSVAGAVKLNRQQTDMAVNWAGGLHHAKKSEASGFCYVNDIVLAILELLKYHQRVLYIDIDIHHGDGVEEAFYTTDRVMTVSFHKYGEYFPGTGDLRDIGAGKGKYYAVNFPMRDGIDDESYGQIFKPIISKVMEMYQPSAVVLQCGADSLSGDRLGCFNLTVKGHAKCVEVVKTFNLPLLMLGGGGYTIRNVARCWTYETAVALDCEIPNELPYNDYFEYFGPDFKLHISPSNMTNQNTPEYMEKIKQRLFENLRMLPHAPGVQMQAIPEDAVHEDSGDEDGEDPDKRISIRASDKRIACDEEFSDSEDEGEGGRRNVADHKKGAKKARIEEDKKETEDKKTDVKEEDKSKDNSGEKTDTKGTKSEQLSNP

For `CC/C(=C(\c1ccc(O)cc1)c1ccc(OCCN(C)C)cc1)c1ccccc1` [4OHT, 4-hydroxytamoxifen], the “Cell death, combination with SAHA” value (MCF-7 ER(+) cells; ER(+) MCF-7 cells, 72 h combination treatment) is given as “modest but significantly increased cell death” and the “Increase in apoptosis in combination with SAHA over SAHA alone” value (MCF-7 cells) is given as “approximately 10%”.
Compound `O=C(CCCCCNC(=O)c1c(-c2ccc(O)cc2)sc2cc(O)ccc12)NO` [8a, 6-hydroxy-N-(6-(hydroxyamino)-6-oxohexyl)-2-(4-hydroxyphenyl)benzo[b]thiophene-3-carboxamide] has an IC50 (human recombinant HDAC1) of 596 ± 51 nM, an IC50 (human recombinant HDAC2) of 2440 ± 20 nM and an IC50 (human recombinant HDAC3) of 214 ± 6 nM. It also gave an IC50 [1] of 719 ± 63 nM.
For `O=C(CCCCCCNC(=O)c1c(-c2ccc(O)cc2)sc2cc(O)ccc12)NO` [8b, 6-hydroxy-N-(7-(hydroxyamino)-7-oxoheptyl)-2-(4-hydroxyphenyl)benzo[b]thiophene-3-carboxamide], the “Inhibition of estrogenic response (antiestrogenic activity), ERE-luciferase reporter” value (ERα [2]) was “concentration dependent inhibition of estrogenic response”.
`O=C(CCCCn1cc(-c2ccc(C(=O)c3c(-c4ccc(O)cc4)sc4cc(O)ccc34)cc2)nn1)NO` [15a, N-hydroxy-5-(4-(4-(6-hydroxy-2-(4-hydroxyphenyl)benzo[b]thiophene-3-carbonyl)phenyl)-1H-1,2,3-triazol-1-yl)pentanamide] gave an IC50 (human recombinant HDAC1) of 8390 ± 300 nM, an IC50 (human recombinant HDAC2) of 19200 ± 650 nM and an IC50 (human recombinant HDAC3) of 5740 ± 530 nM. It also gave an IC50 [1] of 23500 ± 1500 nM.
With `O=C(CCCCCn1cc(-c2ccc(C(=O)c3c(-c4ccc(O)cc4)sc4cc(O)ccc34)cc2)nn1)NO` [15b, N-hydroxy-6-(4-(4-(6-hydroxy-2-(4-hydroxyphenyl)benzo[b]thiophene-3-carbonyl)phenyl)-1H-1,2,3-triazol-1-yl)hexanamide] the “Cell death in MDA-MB-231 ER(−) cells” value (MDA-MB-231 ER(−) cells) was “caused significant cell death”, the “Inhibition of estrogenic response (antiestrogenic activity), ERE-luciferase reporter” value (ERα [2]) was “concentration dependent inhibition of estrogenic response” and the IC50 (ERα [3]) was 2900 ± 300 nM.
With `Oc1ccc(-c2sc3cc(O)ccc3c2Oc2ccc(OCCN3CCCCC3)cc2)cc1` [DMA, desmethylarzoxifene] the “Toxicity towards MCF-7 cells” value (MCF-7 ER(+) cells; 10 μM, 72 h treatment) was “toxic”.
With `O=C(Nc1cc(-c2ccccc2)ccc1O)c1c(-c2ccc(O)cc2)sc2cc(O)ccc12` [compound 10, 6-hydroxy-N-[4-hydroxy-(1,1′-biphenyl)-3-yl]-2-(hydroxyphenyl)benzo[b]thiophene-3-carboxamide] the “% inhibition of HDAC1” value (human recombinant HDAC1; pre-incubation 3 h) was 21–34% and the “% inhibition of HDAC3” value (human recombinant HDAC3; pre-incubation 3 h) was 0–12%.
